Where two headings read alike, the source gives them in different places. Marks after values point to notes of the source that are not given here.
Columns and labels:
[1] = Fluorescence titration with Ca2+ in calcium calibration buffer (apparent dissociation constant, FEF); format: binding; conditions: for FEF, fluorescence enhancement factor (Fmax-Fmin)/Fmin: one-photon, complexation with Ca2+ in CB
Method: (§1) A dissociation constant (Kd) for binding the probe to Ca^2+ was measured using a conventionally known method. Calcium calibration buffers (CBs; 10 mM 3-[N-morpholino]propanesulfonic acid [MOPS], 100 mM KCl, pH 7.2) containing Ca^2+ at concentrations of 0 to 40 μM were prepared using a calcium calibration buffer kit (Biotium, CA, USA). A buffer containing […] or more of Ca^2+ was prepared by adding an appropriate amount of CaCl2 to a MOPS buffer. Probes (BCa-3°mem at a concentration of 0.3 μM and BCa-1 and BCa-2mito at concentrations of 0.1 μM) were added to calcium CB and fluorescence intensity was measured. Each Kd was calculated through a resultant titration curve. In addition, in order to evaluate a fluorescence titration of FHEt-1lyso, the fluorescence intensity was measured by adding FHEt-1lyso probe at a concentration of 0.6 μM in a universal buffer (UB; 0.1 M citric acid, 0.1 M KH2PO4, 0.1 M Na2B4O7, 0.1 M tris[hydroxymethyl]aminomethane, 0.1 M KCl) at pH 4 to 11. The pKa value was calculated through a titration curve.

HeLa cells [2] = test: Dual-color TPM of cytoplasmic Ca2+ and lysosomal pH, monensin; format: cell-based; conditions: monensin 20 μM
Method: To simultaneously monitor changes in lysosomal pH and cytoplasmic [Ca^2+], HeLa cells were co-labeled with a mixture of BCa-1-AM (3 μM) and FHEt-1lyso (1 μM). The cells were washed twice with RB, once with RB containing 5 mM EGTA, and twice with RB containing 0.1 mM EGTA. The TPEF intensity of the cells was measured before and after adding monensin (20 μM, Sigma-Aldrich) to EtOH.
Whether BCa-1 and FHEt-1lyso could be used to simultaneously monitor changes in cytoplasmic [Ca^2+ ] and lysosomal pH during dual-color TPM was evaluated. […] Accordingly, it was confirmed that BCa-1 and FHEt-1lyso could be used to simultaneously monitor changes in cytoplasmic [Ca^2+] and lysosomal pH in live cells during dual-color TPM.

HeLa cells [3] = test: TPM detection of cytoplasmic Ca2+, histamine-induced oscillation; format: cell-based
Method: The mixture was cultured (incubated) at 37° C.
Before and after adding histamine dihydrochloride (100 μM, Sigma-Aldrich) to HBSS, Ca^2+ oscillation was evaluated by TPEF intensity monitoring in HeLa cells labeled with BCa-1-AM (2 μM).
Whether BCa-1 may detect Ca^2+ in the cytoplasm was evaluated. […] The increase and decrease of the TPEF intensity were repeated for 800 seconds, which was consistent with the results of previous histamine-induced Ca oscillation studies. Accordingly, it was confirmed that BCa-1 may target the cytoplasm and detect Ca^2+ in the cytoplasm (FIG. 16).

HeLa cells [4] = tested on: HeLa cells
[5] = Two-photon action cross-section (Φδ); format: physicochemical; conditions: for Φδmax, maximum TP action cross-section: 750 nm, excess Ca2+ (BCa probes) or pH 4.3 (FHEt-1lyso), error ±15%; for Φδ values: absence of Ca2+ (BCa-3°mem) / pH 11 (FHEt-1lyso)
Method: (§2) Φδ and Φδeff for the probes were evaluated using the fluorescence method as reported in other studies (Chem. Asian J. 2015, 10(10):2240-2249).
To evaluate the brightness of the TPM image, a TP action cross-section (Φδ) was measured by a conventionally known method.

[6] = Metal ion selectivity, relative fluorescence intensity in MOPS buffer; conditions: for Response to Zn2+ and Mn2+: 100 μM; for Response to Zn2+ and Mn2+ / Response to Mg2+, Fe2+, Cu2+, Co2+: MOPS pH 7.2; for Response to Mg2+, Fe2+, Cu2+, Co2+: Mg2+ 2 mM, Co2+ 100 μM; for Selectivity for Ca2+: versus competing metal ions
Method: FIG. 8 is graphs showing relative fluorescence intensities of (a) BCa-1, (b) BCa-2mito, or (c) BCa−3°mem in the presence of 2 mM Mg^2+ or 100 μM Zn^2+, Mn^2+, Fe^2+, Cu^2+, or Co^2+ (black bars) and according to subsequent addition of 100 μM Ca^2+ (red bars) in a MOPS buffer (30 mM 3[N-morpholino]propanesulfonic acid, 100 mM KCl, pH 7.2). At this time, excitation wavelengths are (a) 363 nm, (b) 355 nm, and (c) 350 nm, respectively.

HeLa cells [7] = test: Effective TP action cross-section (Φδeff) in probe-labeled cells; format: cell-based; conditions: 750 nm
Method: as §2

[8] = Fluorescence quantum yield; format: physicochemical
Method: Absorption and emission spectra of a two-photon probe (TP probe) were measured using an Agilent 8453 diode array UV-Vis spectrophotometer and a Hitachi fluorescence spectrophotometer F-7000 system using a previously reported method (Chem. Asian J. 2015, 10(10):2240-2249). Fluorescence quantum yield (Φ) was measured by a method used in another study (Anal. Chem. 2011, 83(4):1232-1242) using Coumarin 540A. Two-photon (TP) excitation was implemented using a mode-locked Ti:sapphire laser (Chameleon, 90 MHz, 200 fs; Coherent Inc.).
All of the two-photon probe compounds emitted weak fluorescence at a maximum emission value (4) of 464 to 466 nm and fluorescence quantum yields (0) of 0.027 to 0.063 in CB (10 mM MOPS, 100 mM KCl, pH 7.2). […] The low fluorescence quantum yield (0) values observed with these probes may contribute to efficient photo-induced electron transfer (PeT) from the receptor to the fluorophore (Table 1).

HeLa cells [9] = test: TPM detection of Ca2+ in plasma membrane; format: cell-based
Method: HeLa cells were purchased from the Korean Cell Line Bank (Seoul, Korea). The cells were cultured by a method described in previous studies (Chem. Asian J. 2015, 10(10):2240-2249). Before two days of imaging, HeLa cells (5×10^4/mL) were plated on a confocal glass bottom dish (#200350, SPL Life Sciences, Gyonggi-do, Korea). The cells were washed with an aqueous buffer (pH 7.4), a Hank's balanced salt solution (HBSS; LB003-02, WelGene Inc., Gyeongsangbuk-do, Korea), or a Ringer's solution (RB; 124 mM NaCl, 26 mM NaHCO3, 10 mM d-glucose, 1.3 mM MgSO4, 3 mM KCl, 1.25 mM NaH2PO4) unless otherwise specified. Thereafter, the probe (0.5 to 3 μM) and Pluronic® F-127 (0.03%, Sigma-Aldrich, St. Louis, MO, USA) were added to the cells in one of the three aqueous buffers (1.0 mL). The mixture was cultured (incubated) at 37° C. (BCa-1-AM and BCa-2mito-AM) for 40 minutes or at room temperature (RT; BCa-3mem) for 10 minutes. The cells labeled with the probe were washed 3 times with each corresponding buffer before imaging.
(§3) TP microscopy (TPM) images were obtained using spectral confocal and multiphoton microscopy (Leica TCS SP2; Leica). TPM images of probe-labeled HeLa cells were obtained using a Leica TCS SP2 using a conventional method (Chem. Asian J. 2015, 10(10):2240-2249). Time-dependent changes in TPEF intensity were monitored and measured at intervals of 1.6 to 2.0 seconds in the xyt mode upon excitation at 750 nm. To monitor changes in [Ca^2+ ] in the plasma membrane, the cells were washed successively with RB containing 5, 0.1, and 0 mM of EGTA and then incubated with BCa-3mem (2 μM). The TPEF intensity was measured before and after adding CaCl2 (2 mM) to RB and EGTA (2 mM) in distilled water.
First, whether BCa-3mem may detect Ca^2+ in the plasma membrane was evaluated.

[10] = Water solubility in aqueous buffer; format: physicochemical
Method: The water solubility of BCa-1, BCa-2mito, BCa−3°mem, and FHEt-1lyso in an aqueous buffer (pH 7.4) was evaluated using a conventional fluorescence technique (Chem. Asian J. 2015, 10(10):2240-2249).

[11] = Fluorescence titration of FHEt-1lyso against pH in universal buffer (pKa); format: physicochemical; conditions: for pKa: universal buffer (UB)
Method: as §1
Meanwhile, the fluorescence titration of FHEt-1lyso was performed in UB at pH 4 to 11. […] Therefore, it was confirmed that FHEt-1lyso may detect pH in live cells.

HeLa cells [12] = test: TPM lysosome colocalization with BLT-blue; format: cell-based
Excerpt: as §3
Whether FHEt-1lyso may detect H^+ in the lysosome was evaluated. […] Therefore, it was confirmed that FHEt-1lyso had the ability to detect H^+ in the lysosome by targeting the lysosome.

[13] = from fluorescence titration curve, CB, read-out: Dissociation constant Kd
[14] = in the absence of excess Ca2+, CB pH 7.2
[15] = in the presence of excess Ca2+ (in parentheses)

| Kd [1, 13] [nM] | Φδmax, maximum TP action cross-section [5] | SMILES | Response to Zn2+ and Mn2+ [6] | Response to Mg2+, Fe2+, Cu2+, Co2+ [6] | Selectivity for Ca2+ [6] | FEF, fluorescence enhancement factor (Fmax-Fmin)/Fmin [1] | Φδeff, effective TP action cross-section (HeLa cells [7]) [GM] | Fluorescence quantum yield Φ [8, 14] | Fluorescence quantum yield Φ [8, 15] | Φδ values [5] | other results |
| --- | --- | --- | --- | --- | --- | --- | --- | --- | --- | --- | --- |
| 180 | – | COCCOCCOc1ccc2oc(-c3ccc4cc(NCC(=O)Nc5ccc(N(CC(=O)OCOC(C)=O)CC(=O)OCOC(C)=O)c(OCCOc6ccccc6N(CC(=O)OCOC(C)=O)CC(=O)OCOC(C)=O)c5)ccc4c3)nc2c1 [BCa-1-AM] | – | – | – | – | – | – | – | – | TPEF intensity in the cytoplasm on monensin addition (HeLa cells [2]; 380 to 480 nm): simultaneously increased; Duration of repeated increase and decrease of TPEF intensity (HeLa cells [3]; after histamine): 800 s; TPEF intensity on adding histamine (HeLa cells [3]; histamine 100 μM, cytoplasm): increased and then decreased |
| 2700 | – | CC(=O)OCOC(=O)CN(CC(=O)OCOC(C)=O)c1ccc(NC(=O)CNc2ccc3cc(-c4nc5cc(OCCC[P+](c6ccccc6)(c6ccccc6)c6ccccc6)ccc5o4)ccc3c2)cc1OCCOc1c(F)cccc1N(CC(=O)OCOC(C)=O)CC(=O)OCOC(C)=O.[Br-] [BCa-2mito-AM] | – | – | – | – | – | – | – | – | Pearson's colocalization coefficient (A) (HeLa cells [4]; with MitoTracker Red): 0.84 |
| 2700 | 70 10^−50 cm^4s/photon (GM) | O=C([O-])CN(CC(=O)[O-])c1ccc(NC(=O)CNc2ccc3cc(-c4nc5cc(OCCC[P+](c6ccccc6)(c6ccccc6)c6ccccc6)ccc5o4)ccc3c2)cc1OCCOc1c(F)cccc1N(CC(=O)[O-])CC(=O)[O-].[Br-].[K+].[K+].[K+].[K+] [BCa-2mito] | moderate | weak | high | 10 | 2000 | 0.049^d | (0.50) | – | TPEF intensity in the cytoplasm on FCCP treatment (HeLa cells [4]; FCCP): increased temporarily in the cytoplasm and then gradually decreased to a baseline; TPEF intensity in the mitochondria on FCCP treatment (HeLa cells [4]; FCCP): rapidly decreased |
| – | – | CCCCCCOc1ccc2oc(-c3ccc4cc(NCC(=O)Nc5ccc(N(CC(=O)[O-])CC(=O)[O-])c(OCC(=O)N6CCOCC6)c5)ccc4c3)nc2c1.[K+].[K+] [BCa-3mem] | – | – | – | – | 4800 | – | – | – | TPEF intensity upon addition of Ca2+ (HeLa cells [9]; Ca2+ 2 mM): increased; TPEF intensity during treatment with EGTA (HeLa cells [9]; EGTA 2 mM): decreased; Persistence of plasma membrane signals (HeLa cells [9]; labeled HeLa cells): at least 1 hour; Aqueous solubility [10]: too low |
| – | 70 10^−50 cm^4s/photon (GM) | CCN(CC)c1ccc(NC(=O)CNc2ccc3c(c2)C(C)(CC(=O)NCCN(C)C)c2cc(C(C)=O)ccc2-3)cc1 (centres unmarked) [FHEt-1lyso] | – | – | – | – | 21000 | – | – | quite low | TPEF intensity in the lysosome on monensin addition (HeLa cells [2]; 550 to 660 nm): rapidly decreased; FEF, fluorescence enhancement factor (in parentheses) ([11]; TP process, protonation, UB): (24); FEF, fluorescence enhancement factor ([11]; one-photon, protonation, UB): 25; pKa ([11]; TP process, UB, read-out: pKa^TP (in parentheses)): 6.6; pKa ([11]; one-photon fluorescence titration, UB pH 4 to 11, read-out: pKa): 6.5; Fluorescence quantum yield Φ ([8]; at pH 4.3 (in parentheses)): (0.33); Pearson's colocalization coefficient (A) (HeLa cells [12]): 0.86 |

| SMILES | Kd [1, 13] [nM] | Φδmax, maximum TP action cross-section [5] | Response to Zn2+ and Mn2+ [6] | Response to Mg2+, Fe2+, Cu2+, Co2+ [6] | Selectivity for Ca2+ [6] | FEF, fluorescence enhancement factor (Fmax-Fmin)/Fmin [1] | Φδeff, effective TP action cross-section (HeLa cells [7]) [GM] | Fluorescence quantum yield Φ [8, 14] | Fluorescence quantum yield Φ [8, 15] | Φδ values [5] | other results |
| --- | --- | --- | --- | --- | --- | --- | --- | --- | --- | --- | --- |
| O=C([O-])CN(CC(=O)[O-])c1ccc(NC(=O)CNc2ccc3cc(-c4nc5ccccc5o4)ccc3c2)cc1OCC(=O)N1CCOCC1.[K+].[K+] [BCa-3°mem] | – | 60 10^−50 cm^4s/photon (GM) | moderate | weak | high | 26 | 4800 | 0.027^d | (0.72) | quite low | FEF, fluorescence enhancement factor (in parentheses) ([1]; TP process, complexation with Ca2+): (25); Kd ([1]; TP process, read-out: Kd^TP): 95000 nM; TPM images in contrast to BCa-3mem (HeLa cells [9]; HeLa cells, 0.5 μM probe): much darker and blurry |

Source: patent US20230333019A1, “TWO-PHOTON FLUORESCENT PROBES FOR SIMULTANEOUSLY DETECTING CALCIUM IONS IN ORGANELLES AND LYSOSOMAL PROTONS” (Korea University Research and Business Foundation, priority 2022, published 2023)
